Laboratory results taken from patent EP0472181B1, “5-Amine substituted adenosine analogs as immunosuppressants” (MERRELL PHARMACEUTICALS INC., priority 1990, dated 1992).

Legend:
[1] = test system: Cloned IL-2 dependent cytolytic T lymphocytes (CTLL-20); assay: Inhibition of interleukin-2 dependent T-cell growth in vitro: DNA synthesis activity by [^3H]-TdR pulse after IL-2 restimulation; type: cell-based; settings: [^3H]-TdR final 6 hours
Experimental: The CTLL-20 cells were restimulated with IL-2 (10 units/mL) for 24 hours and were pulsed for the final 6 hours with [^3H]-TdR to measure DNA synthesis activity essentially as described by Bowlin et al. [Cell Immunol. 98, 341-50 (1986)].
The CTLL-20 cells were then restimulated with IL-2 (10 units/mL) for 24 hours and were pulsed for the final 6 hours with [^3H]-TdR to measure DNA synthesis activity essentially as described for Example X.

[2] = test system: Cloned IL-2 dependent cytolytic T lymphocytes (CTLL-20); assay: Inhibition of interleukin-2 dependent T-cell growth in vitro: cell counts by trypan blue exclusion; type: cell-based; settings: 10 Units/mL IL-2
Experimental: Inhibition of interleukin-2 (IL-2) dependent T-cell growth in vitro was determined essentially as described by Bowlin et al. [Cell Immunol. 98, 341-50 (1986)]. Cloned IL-2 dependent cytolytic T lymphocytes (CTLL-20), incubated alone or in the presence of (cis)-5'-deoxy-5'-[(4-amino-2-butenyl) methylamino]adenosine (Compound A) at varying concentrations, were stimulated with 10 Units/mL of IL-2 and were grown in culture. After 72 hours, cell counts were determined based on trypan blue exclusion.
Inhibition of interleukin-2 (IL-2) dependent T-cell growth in vitro was determined essentially as described in Example X. Cloned IL-2 dependent cytolytic T lymphocytes (CTLL-20), incubated alone or in the presence of (cis)-5'-deoxy-5'-[(4-amino-2-butenyl) methylamino]adenosine (Compound A) at 100µM, were stimulated with 10 Units/mL of IL-2 and were grown in culture for 1, 2, 3 or 4 days. At the end of incubation, cell counts were determined based on trypan blue exclusion.

CN(C/C=C\CN)C[C@H]1O[C@@H](n2cnc3c(N)ncnc32)[C@H](O)[C@@H]1O (relative stereo) [Compound A, (cis)-5'-deoxy-5'-[(4-amino-2-butenyl)methylamino]adenosine]
DNA Synthesis CPM ([1]; Compound A 1 µM, 72 hours culture, restimulated with IL-2 10 units/mL for 24 hours): 19218 CPM
DNA Synthesis CPM ([1]; Compound A 10 µM, 72 hours culture, restimulated with IL-2 10 units/mL for 24 hours): 10005 CPM
DNA Synthesis CPM ([1]; Compound A 100 µM, 72 hours culture, restimulated with IL-2 10 units/mL for 24 hours): 8114 CPM
inhibition at 100 µM ([1]; T-lymphocyte, 48 h, time course: incubation time 2 days, Compound A 100 µM, then IL-2 restimulation 24 hours, read-out: DNA Synthesis (% Reduction over Control)): 45%
inhibition at 100 µM ([1]; T-lymphocyte, 72 h, time course: incubation time 3 days, Compound A 100 µM, then IL-2 restimulation 24 hours, read-out: DNA Synthesis (% Reduction over Control)): 76%
inhibition at 100 µM ([1]; T-lymphocyte, 96 h, time course: incubation time 4 days, Compound A 100 µM, then IL-2 restimulation 24 hours, read-out: DNA Synthesis (% Reduction over Control)): 73%
inhibition at 1 µM ([1]; T-lymphocyte, Compound A 1 µM, 72 hours culture, restimulated with IL-2 10 units/mL for 24 hours, read-out: DNA Synthesis (% Reduction over Group 1)): 43%
inhibition at 10 µM ([1]; T-lymphocyte, Compound A 10 µM, 72 hours culture, restimulated with IL-2 10 units/mL for 24 hours, read-out: DNA Synthesis (% Reduction over Group 1)): 70%
inhibition at 100 µM ([1]; T-lymphocyte, Compound A 100 µM, 72 hours culture, restimulated with IL-2 10 units/mL for 24 hours, read-out: DNA Synthesis (% Reduction over Group 1)): 76%
inhibition at 100 µM ([1]; T-lymphocyte, time course: incubation time 1 day, Compound A 100 µM, then IL-2 restimulation 24 hours, read-out: DNA Synthesis (% Reduction over Control)): 59%
DNA Synthesis CPM ([1]; time course: incubation time 1 day, Compound A 100 µM, then IL-2 restimulation 24 hours): 7622 CPM
DNA Synthesis CPM ([1]; time course: incubation time 2 days, Compound A 100 µM, then IL-2 restimulation 24 hours): 6197 CPM
DNA Synthesis CPM ([1]; time course: incubation time 3 days, Compound A 100 µM, then IL-2 restimulation 24 hours): 8114 CPM
DNA Synthesis CPM ([1]; time course: incubation time 4 days, Compound A 100 µM, then IL-2 restimulation 24 hours): 8863 CPM
Cell Count Number Recovered ([2]; Compound A 1 µM, after 72 hours): 4.0x10^6
Cell Count Number Recovered ([2]; Compound A 10 µM, after 72 hours): 2.0x10^6
Cell Count Number Recovered ([2]; Compound A 100 µM, after 72 hours): 1.0x10^6
inhibition at 100 µM ([2]; T-lymphocyte, 24 h, time course: incubation time 1 day, Compound A 100 µM, read-out: Cell Count (% Reduction over Control) (converted)): 40%
inhibition at 100 µM ([2]; T-lymphocyte, 48 h, time course: incubation time 2 days, Compound A 100 µM, read-out: Cell Count (% Reduction over Control) (converted)): 78%
inhibition at 100 µM ([2]; T-lymphocyte, 72 h, time course: incubation time 3 days, Compound A 100 µM, read-out: Cell Count (% Reduction over Control) (converted)): 85%
inhibition at 100 µM ([2]; T-lymphocyte, 96 h, time course: incubation time 4 days, Compound A 100 µM, read-out: Cell Count (% Reduction over Control) (converted)): 64%
inhibition at 1 µM ([2]; T-lymphocyte, Compound A 1 µM, after 72 hours, read-out: Cell Count (% Reduction over Group 1) (converted)): 39%
inhibition at 10 µM ([2]; T-lymphocyte, Compound A 10 µM, after 72 hours, read-out: Cell Count (% Reduction over Group 1) (converted)): 70%
inhibition at 100 µM ([2]; T-lymphocyte, Compound A 100 µM, after 72 hours, read-out: Cell Count (% Reduction over Group 1) (converted)): 85%
Cell Count Number Recovered ([2]; time course: incubation time 1 day, Compound A 100 µM): 0.3x10^6
Cell Count Number Recovered ([2]; time course: incubation time 2 days, Compound A 100 µM): 0.7x10^6
Cell Count Number Recovered ([2]; time course: incubation time 3 days, Compound A 100 µM): 1.0x10^6
Cell Count Number Recovered ([2]; time course: incubation time 4 days, Compound A 100 µM): 1.7x10^6
